# Measured values: US6818643B1, “Neurotrophic bicyclic diamides” (Bristol-Myers Squibb Company, priority 1999, dated 2004)
# Experiments:
# FKBP12 [1] = target: T1, FKBP12 (Homo sapiens, UniProt P62942); experiment: FKBP12 Rotamase Inhibition Assay; assay type: biochemical
# Experimental: FKBP12 Rotamase Inhibition Assay
# The rotamase activity of FKBP-12 was measured by an adaptation of the assay described by Kofron et al. (Biochemistry, 30, pp. 6127-6134 (1991)). The assay was carried out at 4° C. with 1 mg chymotrypsin/mL of assay with succinyl-Ala-Leu-Pro-Phe-p-nitroanilide as the substrate. Chymotrypsin rapidly hydrolyzes the peptide bond on the C-terminal side of the Phe of the trans form of the peptide and releases the chromogenic p-nitroaniline. The rate of the reaction is controlled by the rate of conversion of the cis form of the peptide to the trans-form, the reaction catalyzed by FKBP12. The apparent Ki values for inhibition of the rotamase activity were determined by measuring decreases in the first order rate constant of the reaction catalyzed by FKBP12 as a function of the concentrations of the compounds described herein. Ki is the concentration of the compound that causes 50 percent inhibition of rotamase activity which is indicative of neurite outgrowth activity.
# FKBP12 [2] = target: T1, FKBP12; experiment: Fluorescence Polarization (FP) Assay of FKBP12 Binding; details: for inhibition at 1 µM: read-out: % FP inhibition at 1 μM; for Ki: rotamase Ki derived from FP assay
# Experimental: Fluorescence Polarization (FP) Assay of FKBP12 Binding
# The buffer (25 mM HEPES, 100 mM sodium chloride, pH 7.5) with pre-mixed enzyme and fluorescent ligand is distributed into wells (190 μL/well). Inhibitors are added as 10 μL of a 10% dimethylsulfoxide solution in the same buffer. FP is measured with an excitation wavelength of 485 nm and emission wavelength of 520 nm.
# [3] = Table 2, 1 μM compound, 100 nM fluorescent ligand, 200 nM FKBP12
# [4] = Table 1, 1 μM compound, 100 nM fluorescent ligand, 200 nM FKBP12
# T1 sequence (P62942 whole entry, species assumed): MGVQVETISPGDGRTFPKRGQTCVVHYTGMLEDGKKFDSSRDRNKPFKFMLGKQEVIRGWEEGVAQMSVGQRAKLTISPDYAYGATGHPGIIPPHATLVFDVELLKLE
structure (smiles),measurement,setting,value
"COc1cc(C(=O)C(=O)N2C3CCC2C(=O)N(C(CCc2ccccc2)CCc2ccccc2)C3)cc(OC)c1OC [Example 5, (1S,5R)-8-(3,4,5-Trimethoxyphenyl)oxalyl-3,8-diaza-3-[3-phenyl-1-(2-phenylethyl)propyl]bicyclo[3.2.1]octan-2-one]",inhibition at 1 µM,"FKBP12 [1]; Table 2, 1 μM compound",49%
"CCC(C)(C)C(=O)C(=O)N1CCCC[C@H]1C(=O)OC(CCCc1ccccc1)CCNC(=S)Nc1ccc(-c2c3ccc(=O)cc-3oc3cc(O)ccc23)c(C(=O)O)c1 (stereo partly drawn) [fluorescent FKBP12 ligand, 1-Phenyl-6-(fluoresceinylaminothiocarbamoyl)-4-hexyl-(S)-N-(t-pentylglyoxyl)pipecolate, reference compound]",Ki,FKBP12 [1]; read-out: Ki measured by the prolyl isomerase assay,32 nM
COc1cc(C(F)(F)C(=O)N2C3CCCC2C(=O)N(CC(CCCc2ccccc2)CCCc2ccccc2)C3)cc(OC)c1OC (centres unmarked) [Example 37],inhibition at 1 µM,FKBP12 [2]; [3],4%
"COc1ccc(CCCN2C[C@H]3CC[C@@H](C2=O)N3C(=O)C(=O)c2cc(OC)c(OC)c(OC)c2)cc1OC [Example 3, (1S,5R)-8-(3,4,5-Trimethoxyphenyl)oxalyl-3,8-diaza-3-[3-(3,4-dimethoxyphenyl)propyl]bicyclo[3.2.1]octan-2-one]",inhibition at 1 µM,FKBP12 [2]; [4],26%
same,Ki,FKBP12 [2]; Table 1,380 nM
"CCC(C)(C)C(=O)C(=O)N1C2CCCC1C(=O)N(CCCc1cc(OC)c(OC)c(OC)c1)C2 (centres unmarked) [Example 41, 1-{3,9-Diaza-2-oxo-3-[3-(3,4,5-trimethoxyphenyl)propyl]bicyclo[3.3.1]non-9-yl}-3,3-dimethylpentane-1,2-dione]",inhibition at 1 µM,FKBP12 [2]; [4],4%
"COc1cc(C(F)(F)C(=O)N2C3CCC2C(=O)N(CCCc2ccccc2)C3)cc(OC)c1OC [Example 27, (1S,5R)-8-(3,4,5-Trimethoxyphenyl)difluoroacetyl-3,8-diaza-3-(3-phenylpropyl)bicyclo[3.2.1]octan-2-one]",inhibition at 1 µM,FKBP12 [2]; [4],22%
"COc1ccc(CCC(Cc2ccc(OC)c(OC)c2)CN2C[C@H]3CC[C@@H](C2=O)N3C(=O)C(=O)c2cc(OC)c(OC)c(OC)c2)cc1OC (stereo partly drawn) [Example 13, (1S,5R)-8-(3,4,5-Trimethoxyphenyl)oxalyl-3,8-diaza-3-[4-(3,4-dimethoxyphenyl)-2-((3,4-dimethoxyphenyl)methyl)butyl]bicyclo[3.2.1]octan-2-one]",Ki,FKBP12 [2]; Table 2,122 nM
"COc1cc(C(=O)C(=O)N2C3CCCC2C(=O)N(CCCc2ccccc2)C3)cc(OC)c1OC (centres unmarked) [Example 18, 9-(3,4,5-Trimethoxyphenyl)oxalyl-3,9-diaza-3-(3-phenylpropyl)bicyclo[3.3.1]nonan-2-one]",Ki,FKBP12 [2]; Table 1,60 nM
"COc1cc(C(F)(F)C(=O)N2C3CCC2C(=O)N(C(CCc2ccccc2)CCc2ccccc2)C3)cc(OC)c1OC [Example 30, (1S,5R)-8-(3,4,5-Trimethoxyphenyl)difluoroacetyl-3,8-diaza-3-[3-phenyl-1-(2-phenylethyl)propyl]bicyclo[3.2.1]octan-2-one]",inhibition at 1 µM,FKBP12 [2]; [3],4%
"COc1ccc(CCCCN2CC3CCC(C2=O)N3C(=O)C(=O)c2cc(OC)c(OC)c(OC)c2)cc1OC [Example 4, (1S,5R)-8-(3,4,5-Trimethoxyphenyl)oxalyl-3,8-diaza-3-[4-(3,4-dimethoxyphenyl)butyl]bicyclo[3.2.1]octan-2-one]",inhibition at 1 µM,FKBP12 [2]; [4],15%
"COc1cc(C(=O)C(=O)N2C3CCC2C(=O)N(CCCO)C3)cc(OC)c1OC [Example 42, (1S,5R)-8-(3,4,5-trimethoxyphenyl)oxalyl-3,8-diaza-3-(3-hydroxypropyl)bicyclo[3.2.1]octan-2-one]",inhibition at 1 µM,FKBP12 [2]; [4],19%
"COc1cc(CCCN2C[C@H]3CC[C@@H](C2=O)N3C(=O)C(F)(F)c2cc(OC)c(OC)c(OC)c2)cc(OC)c1OC [Example 31, (1S,5R)-8-(3,4,5-Trimethoxyphenyl)difluoroacetyl-3,8-diaza-3-[3-(3,4,5-trimethoxyphenyl)propyl]bicyclo[3.2.1]octan-2-one]",Ki,FKBP12 [2]; Table 1,598 nM
same,inhibition at 1 µM,FKBP12 [2],19%
"COc1ccc(CCCCN2CC3CCC(C2=O)N3C(=O)C(F)(F)c2cc(OC)c(OC)c(OC)c2)cc1OC [Example 29, (1S,5R)-8-(3,4,5-Trimethoxyphenyl)difluoroacetyl-3,8-diaza-3-[4-(3,4-dimethoxyphenyl)butyl]bicyclo[3.2.1]octan-2-one]",inhibition at 1 µM,FKBP12 [2]; [4],8%
"COc1cc(CCCN2CC3CCCC(C2=O)N3C(=O)C(=O)c2cc(OC)c(OC)c(OC)c2)cc(OC)c1OC (centres unmarked) [Example 15, 9-(3,4,5-Trimethoxyphenyl)oxalyl-3,9-diaza-3-[3-(3,4,5-trimethoxyphenyl)propyl]bicyclo[3.3.1]nonan-2-one]",inhibition at 1 µM,FKBP12 [2]; [4],44%
same,Ki,FKBP12 [2]; Table 1,100 nM
